The target of assay [1] is T1, human recombinant ENPP1 enzymes (Homo sapiens, UniProt P22413).
T1 construct: purchased R & D systems
T1 sequence (P22413 1-925): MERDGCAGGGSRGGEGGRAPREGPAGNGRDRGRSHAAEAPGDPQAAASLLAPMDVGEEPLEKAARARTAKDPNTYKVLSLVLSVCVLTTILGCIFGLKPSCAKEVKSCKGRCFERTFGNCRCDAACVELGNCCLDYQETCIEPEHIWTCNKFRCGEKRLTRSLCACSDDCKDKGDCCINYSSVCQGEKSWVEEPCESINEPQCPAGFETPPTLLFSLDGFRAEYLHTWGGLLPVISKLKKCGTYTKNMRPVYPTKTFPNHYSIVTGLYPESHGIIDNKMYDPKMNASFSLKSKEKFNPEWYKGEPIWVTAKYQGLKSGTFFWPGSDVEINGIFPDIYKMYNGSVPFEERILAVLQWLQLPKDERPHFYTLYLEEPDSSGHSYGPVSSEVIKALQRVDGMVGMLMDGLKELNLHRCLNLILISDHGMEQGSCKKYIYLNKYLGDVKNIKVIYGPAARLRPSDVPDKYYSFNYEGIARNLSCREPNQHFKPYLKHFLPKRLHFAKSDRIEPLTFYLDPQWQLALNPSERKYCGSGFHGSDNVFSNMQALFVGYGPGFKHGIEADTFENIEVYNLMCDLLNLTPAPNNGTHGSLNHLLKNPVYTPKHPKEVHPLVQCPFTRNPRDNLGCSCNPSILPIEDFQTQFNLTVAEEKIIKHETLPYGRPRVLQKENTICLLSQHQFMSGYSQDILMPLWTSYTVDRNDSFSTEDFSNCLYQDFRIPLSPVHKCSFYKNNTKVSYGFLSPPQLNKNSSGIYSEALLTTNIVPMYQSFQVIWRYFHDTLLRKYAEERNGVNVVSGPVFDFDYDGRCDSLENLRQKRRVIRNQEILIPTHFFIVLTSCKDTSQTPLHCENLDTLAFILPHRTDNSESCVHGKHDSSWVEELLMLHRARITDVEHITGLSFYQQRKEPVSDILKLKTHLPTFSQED
The assay can be described thus: ENPP1 Enzyme Assay with cGAMP Substrate (AMP-Glo). The conditions noted are these: human recombinant ENPP1 3 ng/reaction, cGAMP 5 μM, 37° C. 90 minutes, average of two or more tests; read-out: Enzymatic activity IC50. The format is biochemical. The essentials:
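Human recombinant ENPP1 (3 ng/reaction) preincubated 5–10 min at RT with inhibitor, then reacted with 5 µM cGAMP for 90 min at 37 °C in 50 mM Tris pH 8.5, 250 mM NaCl, 0.5 mM CaCl2, 1 µM ZnCl2, 1% DMSO. AMP produced read by AMP-Glo luminescence; IC50 from 3-parameter fit, averaged over ≥2 runs.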

Assay [2] relates to interferon regulatory factor 3 (IRF3) in HCT116-Dual cells. Kind of assay: HCT116-Dual Cell Luciferase Assay (ISG54 promoter, IRF3 activity). In kind it is cell-based. The following applies: ENPP1 inhibitor usually 10 μM plus cGAMP 10 μM, 48 hours, Lucia luciferase. The text has this:
HCT116-Dual™ cells express genes encoding luciferase secreted under the control of the interferon-stimulated gene 54 (ISG54) promoter along with five interferon-stimulated response elements. The HCT116-Dual™ cell line was used to measure and monitor the activity of interferon regulatory factor 3 (IRF3), which induces production of type I interferon and relates to downstream signaling, and Lucia secreted in the culture medium was used to generate luminescence in a luciferase reaction.
HCT116-Dual™ cells were cultured at 2×10^4 cells/well (93.4 μL) in a 96-well plate for one day in a DMEM medium containing 10% FBS and 25 mM HEPES (pH 7.2-7.5). The cells were treated with 3.3 μL of ENPP1 inhibitor (usually 10 μM) and then 3.3 μL of cGAMP (10 μM) to set the final volume to 100 μL (The final fraction of DMSO was 0.1%). The cells treated with ENPP1 inhibitor and cGAMP were cultured at 37° C. for 48 hours and 50 μL of Quanti-Luc reaction solution was added to 20 μL of cell culture medium to measure luciferase activity. The increase in interferon regulatory factor 3 (IRF3) by the compound compared to cGAMP was determined as fold.

As a reminder, the IC50 is the midpoint of a concentration-inhibition curve.

SMILES strings stand for the structures. Counter-ions that a name gives are not always drawn.

Turning to `NS(=O)(=O)NCc1ccc(-c2ccnc3[nH]c(=O)ccc23)c(F)c1F` [Example 43, N-(2,3-difluoro-4-(7-oxo-7,8-dihydro-1,8-naphthyridin-4-yl)benzyl)sulfamide hydrochloride], the half-inhibitory concentration (IC50) in assay [1] was < 1000 nM. Moreover, the “Cellular activity: increase in IRF3 by the compound compared to cGAMP, as fold” value (“Cellular activity: increase in IRF3 … as fold” for short) in assay [2] was “B (1< Fold <2)”.
As to `CCNCc1ccc(-c2ccnc3[nH]c(=O)ccc23)cc1F.Cl` [Example 24, 5-(4-((ethylamino)methyl)-3-fluorophenyl)-1,8-naphthyridin-2(1H)-one hydrochloride], the IC50 in assay [1] was > 10000 nM. Further, in assay [2], the “Cellular activity: increase in IRF3 … as fold” value is reported as “B (1< Fold <2)”.
For `NS(=O)(=O)NCc1cccc(-c2ccnc3[nH]c(=O)ccc23)c1` [Example 37, N-(3-(7-oxo-7,8-dihydro-1,8-naphthyridin-4-yl)benzyl)sulfamide], the half-inhibitory concentration (IC50) in assay [1] is < 1000 nM. In addition, the “Cellular activity: increase in IRF3 … as fold” value in assay [2] is given as “B (1< Fold <2)”.
Regarding `NS(=O)(=O)NCc1ccc(-c2ccnc3[nH]c(=O)ccc23)c(F)c1` [Example 42, N-(3-fluoro-4-(7-oxo-7,8-dihydro-1,8-naphthyridin-4-yl)benzyl)sulfamide hydrochloride], the half-maximal inhibitory concentration (IC50) in assay [1] is < 1000 nM. Besides, the “Cellular activity: increase in IRF3 … as fold” value in assay [2] was “A (>2)”.
As to `NS(=O)(=O)N1Cc2ccc(-c3ccnc4[nH]c(=O)ccc34)cc2C1` [Example 64, 5-(7-oxo-7,8-dihydro-1,8-naphthyridin-4-yl)isoindolin-2-yl)sulfamide hydrochloride], in assay [1], the half-maximal inhibitory concentration (IC50) was < 1000 nM. For the same molecule, the “Cellular activity: increase in IRF3 … as fold” value in assay [2] is listed as “B (1< Fold <2)”.

The values are drawn from US20240140944A1, “NOVEL NAPHTHYRIDINONE DERIVATIVE HAVING INHIBITORY ACTIVITY AGAINST ECTONUCLEOTIDE PYROPHOSPHATASE-PHOSPHODIESTERASE AND USE THEREOF” (TXINNO BIOSCIENCE INC., priority 2020, published 2024).
